Experiments:
[1] = biological target: human IL-17A / human IL-17RA (Homo sapiens (Human), UniProt Q16552); experiment: Human IL-17A biochemical assay (HTRF, blocking of IL-17A binding to IL-17RA); conditions: 0.4 nM IL-17A, 0.3 nM IL-17RA, max compound concentration 10 uM
Summary of the method: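 Compounds (10-point, 2.7-fold dilution from 10 uM) preincubated 3 h at RT with 0.4 nM human IL-17A, followed by 1 h with 0.3 nM IL-17RA and 1 h with Tb-cryptate/XL665 antibodies; buffer 20 mM HEPES pH 7.5, 0.1% BSA. Inhibition derived from HTRF fluorescence ratio; IC50 by four-parameter logistic fitting.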

[2] = test system: IL-17-induced GROα secretion from HT-29 cells; experiment: GROα release assay in human colorectal adenocarcinoma epithelial cell (HT-29, ELISA); format: cell-based; conditions: Homo sapiens, HT-29, 48 h, 10 ng/mL IL-17A, highest concentration 10 μM, read-out: Cellular assay HT29 cell/CXCL1 IC50
Summary of the method: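 IC50 values come from four-parameter fits of GROα levels, quantified by ELISA (450 nm, standard curve) in supernatants. Compounds, 4-fold serially diluted from 10 μM, were mixed 15 min with IL-17A (10 ng/mL final) before 48 h incubation with HT-29 cells at 37°C.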

Sequence of human IL-17A / human IL-17RA (Q16552 24-155): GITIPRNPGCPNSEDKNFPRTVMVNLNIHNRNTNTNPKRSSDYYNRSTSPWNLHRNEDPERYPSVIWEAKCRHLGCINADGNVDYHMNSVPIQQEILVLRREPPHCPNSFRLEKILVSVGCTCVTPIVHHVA

| Structure (SMILES) | IC50 [1] [nM] | IC50 [2] [nM] |
| --- | --- | --- |
| Cc1conc1C(=O)N[C@H](C(=O)Nc1ccc2c(c1)CC(N1C[C@@H](C(F)(F)F)NC1=O)C2)C(C1CC1)C1CC1 (stereo partly drawn) [Example 239, N-((2S)-1,1-dicyclopropyl-3-oxo-3-((2-((S)-2-oxo-4-(trifluoromethyl)imidazolidin-1-yl)-2,3-dihydro-1H-inden-5-yl)amino)propan-2-yl)-4-methylisoxazole-3-carboxamide] | 977 | 3210 |
| CNC(=O)C1(N2CC3(CC3)CNC2=O)Cc2ccc(NC(=O)[C@@H](NC(=O)c3ccc(C#N)n3C)C3CCCCC3)cc2C1 (stereo partly drawn) [Example 131, 5-cyano-N-((1S)-1-cyclohexyl-2-((2-(methylcarbamoyl)-2-(6-oxo-5,7-diazaspiro[2.5]octan-5-yl)-2,3-dihydro-1H-inden-5-yl)amino)-2-oxoethyl)-1-methyl-1H-pyrrole-2-carboxamide] | 5.5 | 14.9 |
| CNC(=O)C1(N2C(=O)NC3CCC2C3)Cc2ccc(NC(=O)[C@@H](NC(=O)c3ccnn3C)C3CCCCC3)cc2C1 (stereo partly drawn) [Example 144, N-((1S)-1-cyclohexyl-2-((2-(methylcarbamoyl)-2-(3-oxo-2,4-diazabicyclo[3.2.1]octan-2-yl)-2,3-dihydro-1H-inden-5-yl)amino)-2-oxoethyl)-1-methyl-1H-pyrazole-5-carboxamide] | 48.6 | 182 |
| Cc1ccccc1NC(=O)C1(N2C[C@@H](C(C)C)NC2=O)Cc2ccc(NC(=O)[C@@H](NC(=O)c3nonc3C)C3CCC(F)(F)CC3)cc2C1 (stereo partly drawn) [Example 253, N-((1S)-1-(4,4-difluorocyclohexyl)-2-((2-((R)-4-isopropyl-2-oxoimidazolidin-1-yl)-2-(o-tolylcarbamoyl)-2,3-dihydro-1H-inden-5-yl)amino)-2-oxoethyl)-4-methyl-1,2,5-oxadiazole-3-carboxamide] | 355 | 331 |
| Cc1nonc1C(=O)N[C@H](C(=O)Nc1ccc2c(c1)CC(N1C[C@@H](C(F)(F)F)NC1=O)C2)C(C1CC1)C1CC1 (stereo partly drawn) [Example 183, N-((2S)-1,1-dicyclopropyl-3-oxo-3-((2-((S)-2-oxo-4-(trifluoromethyl)imidazolidin-1-yl)-2,3-dihydro-1H-inden-5-yl)amino)propan-2-yl)-4-methyl-1,2,5-oxadiazole-3-carboxamide] | 768 | 370 |
| CC(C)[C@@H]1CN(C2(C(=O)N3CCC(O)C3)Cc3ccc(NC(=O)[C@@H](NC(=O)c4ccnn4C)C4CCCCC4)cc3C2)C(=O)N1 (stereo partly drawn) [Example 136, N-((1S)-1-cyclohexyl-2-((2-(3-hydroxypyrrolidine-1-carbonyl)-2-((R)-4-isopropyl-2-oxoimidazolidin-1-yl)-2,3-dihydro-1H-inden-5-yl)amino)-2-oxoethyl)-1-methyl-1H-pyrazole-5-carboxamide] | 108 | 279 |
| Cn1nccc1C(=O)N[C@H](C(=O)Nc1ccc2oc(CN3C[C@@H](C(F)(F)F)NC3=O)cc2c1)C1CCCCC1 [Example 240, N-((S)-1-cyclohexyl-2-oxo-2-((2-(((S)-2-oxo-4-(trifluoromethyl)imidazolidin-1-yl)methyl)benzofuran-5-yl)amino)ethyl)-1-methyl-1H-pyrazole-5-carboxamide] | 200 | 264 |
| CNC(=O)C1(N2C[C@@H](C(C)C)NS2(=O)=O)Cc2ccc(NC(=O)[C@@H](NC(=O)c3ccnn3C)C3CCCCC3)cc2C1 (stereo partly drawn) [Example 55, N-((1S)-1-cyclohexyl-2-((2-((R)-4-isopropyl-1,1-dioxido-1,2,5-thiadiazolidin-2-yl)-2-(methylcarbamoyl)-2,3-dihydro-1H-inden-5-yl)amino)-2-oxoethyl)-1-methyl-1H-pyrazole-5-carboxamide] | 1050 | 1820 |
| CC(C)[C@@H]1CN(C2(C(=O)NCc3ccccn3)Cc3ccc(NC(=O)[C@@H](NC(=O)c4ccnn4C)C4CCCCC4)cc3C2)C(=O)N1 (stereo partly drawn) [Example 163, N-((1S)-1-cyclohexyl-2-((2-((R)-4-isopropyl-2-oxoimidazolidin-1-yl)-2-((pyridin-2-ylmethyl)carbamoyl)-2,3-dihydro-1H-inden-5-yl)amino)-2-oxoethyl)-1-methyl-1H-pyrazole-5-carboxamide] | 19 | 38.8 |
| Cc1nonc1C(=O)N[C@H](C(=O)Nc1ccc2c(c1)CC(C(=O)Nc1ccncc1Cl)(N1C[C@@H](C(C)C)NC1=O)C2)C(C1CC1)C1CC1 (stereo partly drawn) [Example 284, N-((2S)-1-((2-((3-chloropyridin-4-yl)carbamoyl)-2-((R)-4-isopropyl-2-oxoimidazolidin-1-yl)-2,3-dihydro-1H-inden-5-yl)amino)-3,3-dicyclopropyl-1-oxopropan-2-yl)-4-methyl-1,2,5-oxadiazole-3-carboxamide] | 268 | 354 |
| Cc1nonc1C(=O)N[C@H](C(=O)Nc1ccc2c(c1)CC(N1C[C@@H](C(F)(F)F)NC1=O)C2)C1CCCCC1 (stereo partly drawn) [Example 213, N-((1S)-1-cyclohexyl-2-oxo-2-((2-((S)-2-oxo-4-(trifluoromethyl)imidazolidin-1-yl)-2,3-dihydro-1H-inden-5-yl)amino)ethyl)-4-methyl-1,2,5-oxadiazole-3-carboxamide] | 1760 | 4520 |
| Cc1nonc1C(=O)N[C@H](C(=O)Nc1ccc2c(c1)CC(C(=O)Nc1cccc(Cl)c1)(N1C[C@@H](C(C)C)NC1=O)C2)C(C1CC1)C1CC1 (stereo partly drawn) [Example 259, N-((2S)-1-((2-((3-chlorophenyl)carbamoyl)-2-((R)-4-isopropyl-2-oxoimidazolidin-1-yl)-2,3-dihydro-1H-inden-5-yl)amino)-3,3-dicyclopropyl-1-oxopropan-2-yl)-4-methyl-1,2,5-oxadiazole-3-carboxamide] | 1020 | 1970 |
| CNC(=O)C1(N2CC3(CC3)CNC2=O)Cc2ccc(NC(=O)C(NC(=O)c3ccnn3C)C3CCC(CC(F)(F)F)CC3)cc2C1 (stereo not shown) [Example 168, 1-methyl-N-(2-((2-(methylcarbamoyl)-2-(6-oxo-5,7-diazaspiro[2.5]octan-5-yl)-2,3-dihydro-1H-inden-5-yl)amino)-2-oxo-1-(4-(2,2,2-trifluoroethyl)cyclohexyl)ethyl)-1H-pyrazole-5-carboxamide] | 32.8 | 60.5 |
| Cc1nonc1C(=O)N[C@H](C(=O)Nc1ccc2c(c1)CC(C(=O)Nc1ccccc1C(C)C)(N1C[C@@H](C(C)C)NC1=O)C2)C(C1CC1)C1CC1 (stereo partly drawn) [Example 288, N-((2S)-1,1-dicyclopropyl-3-((2-((R)-4-isopropyl-2-oxoimidazolidin-1-yl)-2-((2-isopropylphenyl)carbamoyl)-2,3-dihydro-1H-inden-5-yl)amino)-3-oxopropan-2-yl)-4-methyl-1,2,5-oxadiazole-3-carboxamide] | 110 | 408 |
| CNC(=O)C1(N2CC(Cc3ccc(C(F)(F)F)cc3)NC2=O)Cc2ccc(NC(=O)[C@@H](NC(=O)c3ccnn3C)C3CCCCC3)cc2C1 (stereo partly drawn) [Example 80, N-((1S)-1-cyclohexyl-2-((2-(methylcarbamoyl)-2-(2-oxo-4-(4-(trifluoromethyl)benzyl)imidazolidin-1-yl)-2,3-dihydro-1H-inden-5-yl)amino)-2-oxoethyl)-1-methyl-1H-pyrazole-5-carboxamide] | 157 | 971 |
| CC1CN(C2(C(N)=O)Cc3ccc(NC(=O)[C@@H](NC(=O)c4ccnn4C)C4CCCCC4)cc3C2)C(=O)N1 (stereo partly drawn) [Example 15, N-((1S)-2-((2-carbamoyl-2-(4-methyl-2-oxoimidazolidin-1-yl)-2,3-dihydro-1H-inden-5-yl)amino)-1-cyclohexyl-2-oxoethyl)-1-methyl-1H-pyrazole-5-carboxamide] | 550 | 1240 |
| Cn1nccc1C(=O)N[C@H](C(=O)Nc1ccc2c(c1)OC(CN1C[C@@H](C(F)(F)F)NC1=O)C2)C1CCC(F)(F)CC1 (stereo partly drawn) [Example 258, N-((1S)-1-(4,4-difluorocyclohexyl)-2-oxo-2-((2-(((S)-2-oxo-4-(trifluoromethyl)imidazolidin-1-yl)methyl)-2,3-dihydrobenzofuran-6-yl)amino)ethyl)-1-methyl-1H-pyrazole-5-carboxamide] | 108 | 209 |
| CNC(=O)C1(N2C[C@@H](C(C)C)NC2=O)Cc2ccc(NC(=O)C(NC(=O)c3ccnn3C)C3CCc4ccccc43)cc2C1 (stereo partly drawn) [Example 97, N-(1-(2,3-dihydro-1H-inden-1-yl)-2-((2-((R)-4-isopropyl-2-oxoimidazolidin-1-yl)-2-(methylcarbamoyl)-2,3-dihydro-1H-inden-5-yl)amino)-2-oxoethyl)-1-methyl-1H-pyrazole-5-carboxamide] | 535 | 1860 |
| Cc1nonc1C(=O)N[C@H](C(=O)Nc1ccc2c(c1)OC(CN1C[C@@H](C(F)(F)F)NC1=O)C2)C1CCC(F)(F)CC1 (stereo partly drawn) [Example 257, N-((1S)-1-(4,4-difluorocyclohexyl)-2-oxo-2-((2-(((S)-2-oxo-4-(trifluoromethyl)imidazolidin-1-yl)methyl)-2,3-dihydrobenzofuran-6-yl)amino)ethyl)-4-methyl-1,2,5-oxadiazole-3-carboxamide] | 938 | 2500 |
| CNC(=O)C1(N2C[C@@H](C(C)C)NC2=O)Cc2ccc(NC(=O)C(NC(=O)c3ccnn3C)C3C4CC5CC(C4)CC3C5)cc2C1 (stereo partly drawn) [Example 111, N-(1-((1R,3S,5R,7R)-adamantan-2-yl)-2-((2-((R)-4-isopropyl-2-oxoimidazolidin-1-yl)-2-(methylcarbamoyl)-2,3-dihydro-1H-inden-5-yl)amino)-2-oxoethyl)-1-methyl-1H-pyrazole-5-carboxamide] | 55 | 112 |

Reference: patent US20250154138A1, “Small Molecule IL-17A Modulators” (BeiGene, Ltd., priority 2022, published 2025)
